From patent US9695155B2, “Herbicidal substituted pyrimidinyloxy benzene compounds” (E. I. DU PONT DE NEMOURS AND COMPANY, priority 2013, dated 2017)

Assays:
Experiment in all cases: Test A postemergence
galium = assay type: in vivo, Galium aparine
Outline: (§1)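 Greenhouse pot test, loam/sand soil. Formulation: non-phytotoxic solvent mix plus surfactant. Pre: directed spray onto soil after sowing. Post: plants at 1–2 leaf, 2–10 cm. Rated visually vs untreated controls at ~10 d, 0 (no effect) to 100 (complete control).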

ragweed = assay type: in vivo, Ambrosia elatior
Outline: as §1

blackgrass = assay type: in vivo, Alopecurus myosuroides
Outline: as §1

Italian ryegrass = assay type: in vivo, Lolium multiflorum
Outline: as §1

kochia = assay type: in vivo, Kochia scoparia
Outline: as §1

[1] = 125 g ai/ha, 0 to 100 scale where 0 is no effect and 100 is complete control
[2] = 500 g ai/ha, 0 to 100 scale where 0 is no effect and 100 is complete control
[3] = 1000 g ai/ha, 0 to 100 scale, 0 no effect, 100 complete control
[4] = 31 g ai/ha, 0 to 100 scale, 0 no effect, 100 complete control
[5] = 125 g ai/ha, 0 to 100 scale, 0 no effect, 100 complete control

| Compound | Plant response rating, Galium (galium; [3]) | Plant response rating, Ragweed (ragweed; [3]) | Plant response rating, Blackgrass (blackgrass; [3]) | Plant response rating, Ryegrass, Italian (Italian ryegrass; [3]) | Plant response rating, Kochia (kochia; [3]) | Plant response rating, Galium (galium; [4]) | Galium plant response rating (galium; [1]) | Plant response rating, Ragweed (ragweed; [4]) | Ragweed plant response rating (ragweed; [1]) | Plant response rating, Blackgrass (blackgrass; [4]) | Blackgrass plant response rating (blackgrass; [1]) | Plant response rating, Ryegrass, Italian (Italian ryegrass; [4]) | Ryegrass, Italian plant response rating (Italian ryegrass; [1]) | Plant response rating, Kochia (kochia; [4]) | Kochia plant response rating (kochia; [1]) | further results |
| --- | --- | --- | --- | --- | --- | --- | --- | --- | --- | --- | --- | --- | --- | --- | --- | --- |
| Clc1cnc(Oc2cccc(Br)c2-n2cc(I)nn2)nc1 [Compound 117] | – | – | – | – | – | – | – | – | – | – | – | – | – | – | – | Plant response rating, Galium (galium; [1]): 100; Plant response rating, Galium (galium; [2]): 100; Plant response rating, Ragweed (ragweed; [2]): 100; Plant response rating, Blackgrass (blackgrass; [1]): 40; Plant response rating, Blackgrass (blackgrass; [2]): 80; Plant response rating, Ryegrass, Italian (Italian ryegrass; [2]): 90; Plant response rating, Kochia (kochia; [1]): 100; Plant response rating, Kochia (kochia; [2]): 100 |
| FCc1cn(-c2ccccc2Oc2ncc(Cl)cn2)nn1 [Compound 123] | 100 | 100 | 90 | 90 | 100 | – | – | – | – | – | – | – | – | – | – | – |
| N#Cc1cnn(-c2c(Br)cccc2Oc2ncc(Cl)cn2)c1 [Compound 140] | – | – | – | – | – | 80 | 90 | 60 | 70 | 30 | 70 | 0 | 30 | 90 | 100 | – |
| FCc1cccc(Oc2ncc(F)cn2)c1-n1cc(I)cn1 [Compound 152] | – | – | – | – | – | 90 | 90 | 20 | 20 | 50 | 90 | 0 | 20 | 20 | 80 | – |
| Clc1cnc(Oc2ccccc2-n2cc(C3CC3)nn2)nc1 [Compound 160, 5-chloro-2-[2-(4-cyclopropyl-1H-1,2,3-triazol-1-yl)phenoxy]pyrimidine] | 100 | 100 | 100 | 90 | 100 | – | – | – | – | – | – | – | – | – | – | – |
| FCc1cccc(Oc2ncc(Cl)cn2)c1-n1cc(I)cn1 [Compound 245] | – | – | – | – | – | 100 | – | 0 | – | 30 | – | 0 | – | 60 | – | Plant response rating, Galium (galium; [5]): 100; Plant response rating, Ragweed (ragweed; [5]): 20; Plant response rating, Blackgrass (blackgrass; [5]): 70; Plant response rating, Ryegrass, Italian (Italian ryegrass; [5]): 20; Plant response rating, Kochia (kochia; [5]): 100 |
